# Laboratory results reported in PMC9698773, “Design, Synthesis, Molecular Modeling, and Anticancer Evaluation of New VEGFR-2 Inhibitors Based on the Indolin-2-One Scaffold” (Pharmaceuticals, 2022).
# “And” between values parts separate entries of the source, which are not always exact repeats. Identical values can stand only once.
# Assays:
# [1] = tested on: HepG2 cells; experiment: Cell cycle analysis (PI staining, flow cytometry); format: cell-based, human; details: HepG2, 1.13 µM, 24 h
# Method: The liver HepG2 cells were treated with 1.13 μM of 17a, and the effect on the cell cycle distribution was evaluated by flow cytometric analysis, as described in the Supplementary Materials. […]
# 4.2.3. Cell cycle analysis
# To determine the role of the synthesized compounds in cell cycle distribution, cell cycle analysis was performed using propidium iodide (PI) staining and flow cytometry analysis for compound 17a. A Flow Cytometry Kit for Cell Cycle Analysis (ab139418_Pro‐ pidium Iodide Flow Cytometry Kit/BD) was used in this test. HepG2 cells were treated with compound 17a (1.13 μM) for 24 h. Then, the cells were fixed in 70% ethanol at 4 °C for 12 h. After that, the cells were washed with cold PBS, incubated with 100 μl RNase A at 37 °C for 30 min, and stained with 400 μ l PI in the dark at room temperature for a further 30 min. The stained cells were measured using a BD FACSCalibur™ Flow Cytometer, and the data were analyzed using Flowing software (version 2.5.1, Turku Centre for Biotech‐
# [2] = tested on: Bcl-2; experiment: Bcl-2 expression assay (Western blot); format: cell-based, human; details: HepG2, 1.13 µM, 24 h
# Method: The expression of BAX and Bcl-2 were evaluated in the HepG2 cells after treatment with 1.13 µM of compound 17a for 24 h. The Western blotting technique was utilized to determine the levels of Bax and Bcl-2 proteins and estimate the Bax/Bcl-2 ratio.
# The expression of apoptotic BAX and antiapoptotic Bcl-2 proteins in the liver HepG2 cells treated with 1.13 μM of 17a was determined using Western blot analysis, as described in the Supplementary Materials. […]
# Casp3 F: 5ʹ‐ […] ‐3ʹ
# Casp3 R: 5ʹ‐ […] ‐3ʹ […]
# β‐actin F: 5ʹ‐[…]‐3ʹ […]
# β‐actin R: 5ʹ‐[…]‐3ʹ […]
# 4.2.6. Bax and Bcl‐2 expression assay
# The expression of BAX and Bcl‐2 proteins were determined using Western blot anal‐ ysis. In brief, HepG2 cells were treated with control or with the synthesized compound 17a (1.13 μM). […] Total protein concentrations in the supernatant were colorimetrically determined using the Pierce 660 nm Protein Assay method (Thermo Fisher Scientific, Rockford, IL), with BSA as the stand‐ ard. […] Means of the detected blot intensities were then quantified, analyzed by the combined Bio‐Rad Image Lab soft‐ ware and their corresponding background subtracted, with normalization to the corre‐ sponding bands density of β‐actin as the sampling loading control. […]
compound,measurement,setting,value
"O=C1Nc2ccccc2C1=Nc1ccc(C(=O)NNC(=S)Nc2ccccc2)cc1 [Compound 17a, 2-(4-((2-Oxoindolin-3-ylidene)amino)benzoyl)-N-phenylhydrazinecarbothioamide]",Cell Cycle Distribution %G0-G1,[1],42.91%
same,Cell Cycle Distribution %G2/M,[1],9.07%
same,Cell Cycle Distribution %S,[1],48.02%
same,Cell Cycle Distribution %pre G1,[1],46.38%
same,increase of cell population at S phase versus control,[1],1.43 fold
same,phase of cell cycle arrest,[1],S phase
same,decrease of Bcl-2 expression versus control,[2],1.88 fold and 1.9 fold
same,Protein Expression (Normalized to β-Actin) Bcl-2,[2]; control 0.432,0.229
